Patent publication US9416162B2, “Peptides having reduced toxicity that stimulate cholesterol efflux” (The Regents of the University of California, priority 2013, dated 2016)
Non-standard residues stand in square brackets, D forms with d. No end group written: not given here. Cit = NC(=O)NCCC[C@H](N)C(=O)O

Tested on: apoE−/− mice
Test: Atherosclerosis in apoE−/− mice on high-fat western diet, whole aorta Oil-Red O staining
Type: in vivo, mouse
Settings: IP 30 mg/kg at 48 hour intervals for 6 weeks
Method: Male apoE^−/− mice at 8 weeks of age were fed a high-fat western diet for 14 weeks. Mice were subsequently randomized to either a control group to receive IP injection of vehicle alone or lipid-free peptide (30 mg/kg) at 48 hour intervals for 6 weeks. […] The extent of whole aorta covered with fatty lesions is shown, determined by Oil-Red O staining. Values are means±SD, n=10 mice per group.
CS6253, another synthesis batch of T5237-4, was administered IP at 10 mg/kg for 10 weeks showing again reduction of substantial atherosclerosis in apoE^−/− mice (FIG. 36). Male apoE^−/− mice at 8 weeks of age were fed a high-fat western diet for 14 weeks. Mice were subsequently randomized to either a control group to receive IP injection of vehicle alone or lipid-free CS6253 (10 mg/kg) at 48 hour intervals for 10 weeks while the mice remained on high-fat western diet. The extent of whole aorta covered with fatty lesions is shown, determined by Oil-Red O staining. Values are means±SD, n=10 mice per group.
CS6253 administered SC also reduce substantial atherosclerosis in apoE KO mice. Male apoE−/− mice at 8 weeks of age were fed a high-fat western diet for 14 weeks (FIG. 37). One group was terminated before treatment start as baseline control. Mice were subsequently randomized to one of 3 arms to receive subcutaneous (SC) injection alternate days for 6 weeks; vehicle alone, CS6253 30 mg/kg or CS6253 60 mg/kg. During the first 4 treatment weeks the mice remained on high-fat western diet while during the last two weeks of treatment they were switched to chow diet. The extent of whole aorta covered with fatty lesions is shown, determined by Oil-Red O staining. Values are means±SD, n=10 mice per group.

## T5460-1: citrulline form of LeuATI-5261 possessing a single R3→Citrulline substitution (EV[Cit]SKLEEWLAALRELAEELLARLKS)
  extent of whole aorta covered with fatty lesions: reduced atherosclerosis
